We go through eight compounds from PubChem BioAssay (NCI).

Test systems include SK-MEL-5 melanoma; COLO 205 colon; A549 NSCLC; SF-268 CNS; RPMI-8226 leukemia; IGROV1 ovarian; MALME-3M melanoma; HOP-92 NSCLC; HCT-15 colon; CAKI-1 renal.
Experiment in all cases: NCI-60 cell line screen, 48 h

Several values for one entry are separate records, joined by “and”; a condition that tells them apart may be missing. Equal entries are not always repeated.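 How tested: cells in 96-well plates exposed to compound for 48 hours at five concentrations. GI50 is the concentration that inhibits growth by half. TGI denotes the concentration required for complete inhibition of growth.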

On to `COc1cc(NS(C)(=O)=O)ccc1Nc1c2ccccc2nc2c(C)cccc12`, for which the GI50 in the experiment on SK-MEL-5 melanoma was 0.153 µM and 0.218 µM; in the experiment with COLO 205 colon it was 0.245 µM and 0.243 µM; in the experiment on A549 NSCLC, 0.0189 µM and 0.0234 µM; in the experiment with SF-268 CNS, 0.266 µM and 0.288 µM; with RPMI-8226 leukemia it was 0.187 µM and 0.134 µM; in the experiment with IGROV1 ovarian, 0.541 µM and 0.438 µM. Also, the GI50 in the experiment with MALME-3M melanoma is 0.312 µM and 0.251 µM; in the experiment with HOP-92 NSCLC, 0.0495 µM and 0.104 µM; with HCT-15 colon, 0.202 µM and 0.242 µM; with CAKI-1 renal, 0.073 µM and 0.0923 µM. Besides, the TGI was 1.2 µM and 3.69 µM in the experiment on SK-MEL-5 melanoma; 2.59 µM and 5.16 µM with COLO 205 colon; 1.25 µM and 1.04 µM in the experiment on A549 NSCLC; 13.6 µM and 14.2 µM with SF-268 CNS; 0.853 µM and 0.717 µM in the experiment with RPMI-8226 leukemia; 24.1 µM and 19.9 µM in the experiment on IGROV1 ovarian. In addition, the TGI is 3.81 µM and 3.2 µM in the experiment on MALME-3M melanoma; 1.1 µM and 2.27 µM with HOP-92 NSCLC; 2.61 µM and 3.53 µM in the experiment with HCT-15 colon; 4.6 µM and 5.71 µM in the experiment with CAKI-1 renal.
Consider `COc1cccc(C(=O)Nc2ccc(CN3CCc4nc5cc(OC)c(OC)cc5cc43)cc2)c1`, for which the GI50 in the experiment with SK-MEL-5 melanoma was 2.97 µM; in the experiment with COLO 205 colon, 2.69 µM; in the experiment on A549 NSCLC it was 3.78 µM; in the experiment on SF-268 CNS, 6.51 µM; with RPMI-8226 leukemia, 3.89 µM; with IGROV1 ovarian it was 5.15 µM. In addition, the GI50 in the experiment with MALME-3M melanoma was 4.91 µM; in the experiment on HOP-92 NSCLC, 1.92 µM; in the experiment on HCT-15 colon it was 3.32 µM; in the experiment with CAKI-1 renal it was 3 µM. Also, the TGI was 10.9 µM in the experiment with SK-MEL-5 melanoma; 7.03 µM in the experiment on COLO 205 colon; > 100 µM in the experiment on A549 NSCLC; > 100 µM in the experiment on SF-268 CNS; 24.3 µM in the experiment with RPMI-8226 leukemia; > 100 µM with IGROV1 ovarian. The TGI stood at 27.6 µM in the experiment with MALME-3M melanoma, 7.45 µM in the experiment with HOP-92 NSCLC, 19.3 µM with HCT-15 colon and 20.9 µM in the experiment on CAKI-1 renal.
Take `O=C(CCN1CCOCC1)Nc1ccc(F)cc1F`: the TGI in the experiment with SK-MEL-5 melanoma, with COLO 205 colon, in the experiment on A549 NSCLC, in the experiment on SF-268 CNS, in the experiment on RPMI-8226 leukemia and in the experiment with IGROV1 ovarian was > 100 µM each time. For the same compound, the TGI with MALME-3M melanoma, in the experiment with HOP-92 NSCLC, with HCT-15 colon and in the experiment with CAKI-1 renal was > 100 µM each time.
With `COC1C(O)C(C)OC(OC2C(Oc3cccc4c(O)c5c(=O)oc6ccc(C)c7c(=O)oc(c34)c5c67)OC(C)C3O[C@H](c4ccccc4)OC32)C1O` (stereo not given in full), the TGI with SK-MEL-5 melanoma came out at 1.8 µM; in the experiment on COLO 205 colon, 5.59 µM; with A549 NSCLC, 2.53 µM; with SF-268 CNS, 5.83 µM; with RPMI-8226 leukemia, 11.1 µM; in the experiment on IGROV1 ovarian it was 3.42 µM. Moreover, the TGI was 3.72 µM with MALME-3M melanoma; 7.21 µM with HOP-92 NSCLC; 6.65 µM in the experiment with HCT-15 colon; 0.616 µM and 5.28 µM with CAKI-1 renal. The GI50 was 0.258 µM and 0.204 µM in the experiment on COLO 205 colon; 0.115 µM with RPMI-8226 leukemia; 0.0823 µM in the experiment on HOP-92 NSCLC; 0.516 µM in the experiment on HCT-15 colon; 0.134 µM in the experiment with CAKI-1 renal.
In the case of `C=C1C(=O)O[C@H]2[C@H]1CC/C(Cn1cc(CNCCc3c[nH]c4ccc(Cl)cc34)nn1)=C\CC[C@@]1(C)O[C@@H]21`, the GI50 is 17 µM with SK-MEL-5 melanoma; 1.96 µM in the experiment on COLO 205 colon; 34.9 µM in the experiment with A549 NSCLC; 12.5 µM with SF-268 CNS; 2.36 µM with RPMI-8226 leukemia; 2.44 µM with IGROV1 ovarian. Moreover, the GI50 is 2.4 µM in the experiment with MALME-3M melanoma, 1.34 µM with HOP-92 NSCLC, 13.4 µM in the experiment on HCT-15 colon and 15.2 µM with CAKI-1 renal. For the same compound, the TGI with SK-MEL-5 melanoma is 34.9 µM; in the experiment on COLO 205 colon it was 3.75 µM; in the experiment on A549 NSCLC, > 100 µM; in the experiment with SF-268 CNS, 33.6 µM; with RPMI-8226 leukemia, 5.55 µM; in the experiment on IGROV1 ovarian, 9.59 µM. Further, the TGI in the experiment on MALME-3M melanoma is 6.61 µM; with HOP-92 NSCLC, 3.05 µM; in the experiment on HCT-15 colon, 29.9 µM; with CAKI-1 renal it was 28.7 µM.
For `COc1cc(/C=N/Nc2ncnc3c2cnn3C(C)C)ccc1O`, the GI50 is 8.1 µM in the experiment on SK-MEL-5 melanoma; 12.2 µM in the experiment on COLO 205 colon; 9.92 µM in the experiment with A549 NSCLC; 7.68 µM with SF-268 CNS; 9.76 µM in the experiment on RPMI-8226 leukemia; 7.56 µM in the experiment with IGROV1 ovarian. For the same compound, the GI50 was 15 µM in the experiment on MALME-3M melanoma, 0.357 µM in the experiment with HOP-92 NSCLC, 11 µM in the experiment with HCT-15 colon and 6.43 µM with CAKI-1 renal. Further, the TGI with SK-MEL-5 melanoma is > 25 µM; in the experiment with COLO 205 colon, > 25 µM; with A549 NSCLC, > 25 µM; in the experiment on SF-268 CNS, > 22.8 µM; with RPMI-8226 leukemia it was > 17.8 µM; in the experiment with IGROV1 ovarian, 20.5 µM. Also, the TGI is > 25 µM in the experiment with MALME-3M melanoma, 4.99 µM in the experiment on HOP-92 NSCLC, > 25 µM with HCT-15 colon and > 25 µM with CAKI-1 renal.
For the compound `CCCN(CCCN)/[N+]([O-])=N\O`, the TGI with SK-MEL-5 melanoma, in the experiment with COLO 205 colon, in the experiment on A549 NSCLC, with SF-268 CNS, in the experiment with RPMI-8226 leukemia and in the experiment on IGROV1 ovarian was > 100 µM throughout. In addition, the TGI in the experiment with MALME-3M melanoma, with HOP-92 NSCLC, in the experiment on HCT-15 colon and in the experiment with CAKI-1 renal was > 100 µM throughout.
Regarding `O=C(Cn1c(=O)c(-c2ccccc2)nc2ccccc21)c1ccc(Cl)cc1`, the GI50 was > 100 µM in the experiment on SK-MEL-5 melanoma; > 100 µM in the experiment on COLO 205 colon; 58.3 µM with A549 NSCLC; > 100 µM in the experiment with SF-268 CNS; 57.8 µM in the experiment with RPMI-8226 leukemia; 63.3 µM in the experiment on IGROV1 ovarian. Besides, the GI50 was > 100 µM in the experiment with MALME-3M melanoma, 27.2 µM in the experiment on HOP-92 NSCLC, > 100 µM with HCT-15 colon and 67.5 µM with CAKI-1 renal. The TGI with SK-MEL-5 melanoma, with COLO 205 colon, in the experiment with A549 NSCLC, with SF-268 CNS, in the experiment with RPMI-8226 leukemia and in the experiment with IGROV1 ovarian was > 100 µM each time. Further, the TGI was > 100 µM in the experiment on MALME-3M melanoma, 65 µM in the experiment on HOP-92 NSCLC, > 100 µM with HCT-15 colon and > 100 µM in the experiment on CAKI-1 renal.
